Data reported in US4997757A, “Process for detecting potential carcinogens” (GeneBioMed, Inc., priority 1988, dated 1991).
Where two headings read alike, the source gives them in different places.

Tests used:
[1] = test system: strain RS112 (his3 deletion alleles); test: SCC (sister chromatid conversion) intrachromosomal recombination system, deletion alleles of his3; type: cell-based, Saccharomyces cerevisiae; details: for SCC/10^4 cells: strain RS112
Description: (§1) In the most preferred embodiment it is preferable to grow the cells in a medium which selects against the occurrence of the genome rearrangement to keep the control values as low as possible. In the embodiment described in FIG. 1 it is shown that the LEU2 gene of construct 10 is lost after the genome rearrangement which results in construct 22. Therefore cells containing construct 10, before the rearrangement are able to grow in the absence of leucine in the medium, but cells containing construct 22, after the genome rearrangement are not able to grow in the absence of leucine. After the genome rearrangement cells containing construct 22 are able to grow in the absence of histidine in the medium, but cells containing construct 10 before the genome rearrangement are not able to grow in the absence of histidine. Therefore the selection scheme which was used for Example 3 involves growth of the yeast culture in medium lacking leucine but containing histidine before and during the exposure to the potential carcinogens or other test agents. After the exposure the cells which have undergone genome rearrangement are selected on medium lacking histidine but containing leucine.
(§2) It is preferred that, when the cells are to be grown in the presence of the agent, logarithmic phase cultures are used. In one embodiment, for each of the test strains, a cell suspension of 2×10^6 cells per milliliter-LEU medium be prepared from a logarithmic phase culture pregrown in liquid-LEU medium. The whole mix is aliquoted into portions of 5 milliliter into disposable plastic tubes in the presence of the agent to be tested, the tubes are sealed and shaken continuously for 17 hours.
(§3) After the yeast cells have been exposed to both the agent to be tested and the selection medium under the conditions of the test and have been incubated for some time period of about more than one day preferably at 30 degrees Celsius or any other temperature which allows growth of the yeast cells used, the number of colonies formed by cells which have undergone genome rearrangement are counted and compared with the number of colonies of yeast cells identical in substantially every respect with the exception of not having been exposed to the suspected carcinogenic agent. The rates of genome rearrangement for both the control and experimental samples are then compared.
(§4) Plasmids were constructed as substrates to study intrachromosomal recombination; see an earlier part of the specification and Example 1. The plasmids pRS6 (FIG. 7, construct 108) and pRS11 (FIG. 9, construct 118) both contained an internal fragment of the HIS3 gene as well as one selectable marker (LEU2). pRS11 in addition contained the 2 μm origin of replication to select for the presence of the plasmid after plasmid excision. pRS11FRT-had the FLP recombination site disrupted (see Example 1). Yeast strains RSY6 containing construct 10, RSY11 containing construct 118 and RSY11FRT- (see Example 1) were used. They contained the respective pRS plasmids integrated into the HIS3 gene of strain S35/2-10C giving rise to disruptions of the HIS3 gene construct 10 or analogs to it (FIG. 10). The two resulting his3 deletion alleles (FIG. 10) shared about 400 basepairs of homology and thus could interact with each other by homologous recombination. Reversion of his- to HIS+ occurred at a frequency of about 4×10^-4 in all three strains. All of 100 tested HIS+ revertants of strain RSY6 were leu-. Because of this observation strains used for recombination studies were always pregrown on -LEU medium to prevent growth of HIS+ revertants. Therefore the frequency of HIS+ revertants is a measure of the recombination rate.
(§5) The strain used in this example was RS112 which was obtained by crossing strain RSY6 with strain 428. RSY6 contains the SCC system and was deposited at November 30 under "ATCC designation number 20871" with the American Type Culture Collection of 12301 Parklawn Drive, Rockville, Md. 20852. […]

[2] = test system: strain RS112 (heteroalleles ade2-40 and ade2-101); test: ICC (interchromosomal gene conversion) between heteroalleles ade2-40 and ade2-101; type: cell-based, Saccharomyces cerevisiae; details: for ICC/10^5 cells: strain RS112
Method: as §2
(§6) The strain used in this example was RS112 which was obtained by crossing strain RSY6 with strain 428. RSY6 contains the SCC system and was deposited at November 30 under "ATCC designation number 20871" with the American Type Culture Collection of 12301 Parklawn Drive, Rockville, Md. 20852. Strain 428 was obtained from M. Snyder, Department of Biology, at Yale University, New Haven, Conn. and was used because it contains the mutation his3Δ-200, the construction of which has been described in an article by Struhl entitled "Naturally occurring poly(dA-dT) sequences are upstream promoter elements of constitutive transcription in yeast, published in Proc. Natl. Acad. Sci. USA 82 on pages 8419-8423. Strains containing the his3Δ-200 mutation are readily available to those skilled in the art.
Strain RS112 has the following genotype: [drawing 2]
Values for the intrachromosomal recombination system between deletion alleles of his3 are designated as SCC. Also strain RS112 contained heteroallelic mutations in ade2 so that the frequency of interchromosomal gene conversion (ICC) between heteroalleles in a diploid was determined. ICC was measured as recombination between the heteroalleles ade2-40 and ade2-101 by selecting for ADE+. Values obtained are given to compare the performance of the two systems.
The frequencies for ICC are given in events per 10^5 survivals, and the frequencies for SCC are given in events per 10^4 survivals. It has to be noted that for sister chromatid recombination in mammalian cells the increase even with potent carcinogens is usually less than ten fold and also slight increases have been taken as positive results. For instance an increase in frequency of two fold has been taken to be significant; see a publication by Rudiger et al. entitled "Metabolites of diethylstilbestrol induce sister chromatid exchange in human cultured fibroblasts." published in Nature 281:392-394).

[3] = test system: strain RS112; test: survival of yeast exposed to agent; type: cell-based, Saccharomyces cerevisiae; details: 1020 min
Description: (§7) It is preferred to conduct a preliminary experiment to determine those concentrations of the agent to be tested which should be evaluated in the main experiment. Yeast cells are exposed to a wide range of concentrations of the agent to be tested to determine its cytotoxicity.
as §2, §6

[4] = test system: Salmonella typhimurium; details: cited from earlier work
[5] = test system: mammalian cells; details: cited from earlier work
[6] = test system: mammalian cells; details: cited from earlier work; remark: listed apart in the source
[7] = test system: mice; details: cited from earlier work
[8] = in vivo, cited from earlier work
[9] = SCC (sister chromatid conversion) intrachromosomal recombination system, deletion alleles of his3; type: cell-based, Saccharomyces cerevisiae; details: yeast strain rs112; versus untreated control; read-out: induction for SCC / increase in SCC
Description: as §1, §2, §3, §4, §5

[10] = survival of yeast exposed to agent; type: cell-based, Saccharomyces cerevisiae
Description: as §7, §2, §6

In the case of `Cc1c(N)c(=O)n(-c2ccccc2)n1C` [Aminoantipyrine], the “SCC/10^4 cells” value ([1]; 10 mg/ml) is reported as 1.02 /10^4 cells, the “SCC/10^4 cells” value ([1]; 20 mg/ml) is reported as 1.80 /10^4 cells and the “SCC/10^4 cells” value ([1]; 40 mg/ml) is reported as 25.8 /10^4 cells. The “ICC/10^5 cells” value ([2]; 10 mg/ml) was 0.75 /10^5 cells, the “ICC/10^5 cells” value ([2]; 20 mg/ml) was 1.8 /10^5 cells and the survival ([3]; 10 mg/ml) was 97%. For the same compound, the survival ([3]; 20 mg/ml) was 73.3%, the survival ([3]; 40 mg/ml) was 0.89% and the “Ames Assay result” value [4] was “negative”. For the same compound, the SCE assay result [5] was “negative”, the “chromosomal aberration assay result” value [6] was “negative” and the carcinogenicity [7] was “bladder carcinogen”. For the same compound, the carcinogenicity [8] was “known carcinogens”.

In the case of `CCOS(C)(=O)=O` [EMS, ethyl methanesulphonate], the fold induction [9] is reported as 20 to 150, the “SCC result in words” value [1] is reported as “inducible” and the “SCC/10^4 cells” value ([1]; 0.02 %) is reported as 4.1 /10^4 cells. For the same compound, the “SCC/10^4 cells” value ([1]; 0.1 %) was 18.1 /10^4 cells, the “SCC/10^4 cells” value ([1]; 0.2 %) was 25.3 /10^4 cells and the “ICC result in words” value [2] was “inducible”. For the same compound, the “ICC/10^5 cells” value ([2]; 0.02 %) was 1.3 /10^5 cells, the “ICC/10^5 cells” value ([2]; 0.1 %) was 15.8 /10^5 cells and the “ICC/10^5 cells” value ([2]; 0.2 %) was 28.9 /10^5 cells. The viability at 17 h ([10]; yeast strain rs112, 0.02 %) was 98%, the viability at 17 h ([10]; yeast strain rs112, 0.1 %) was 91% and the viability at 17 h ([10]; yeast strain rs112, 0.2 %) was 37%.

For `CCSCC[C@H](N)C(=O)O` [Ethionine], the “SCC/10^4 cells” value ([1]; 10 mg/ml) was 4.8 /10^4 cells, the “SCC/10^4 cells” value ([1]; 20 mg/ml) was 5.4 /10^4 cells and the “ICC/10^5 cells” value ([2]; 10 mg/ml) was 0.77 /10^5 cells. The “ICC/10^5 cells” value ([2]; 20 mg/ml) was 0.80 /10^5 cells, the viability at 17 h ([10]; yeast strain rs112, 10 mg/ml) was 79% and the viability at 17 h ([10]; yeast strain rs112, 20 mg/ml) was 67%. The “Ames Assay result” value [4] was “negative”, the SCE assay result [5] was “negative” and the “chromosomal aberration assay result” value [6] was “negative”. The carcinogenicity [8] was “liver carcinogen” and the carcinogenicity ([8]; listed as ethionine) was “known carcinogens”.

In the case of `COS(C)(=O)=O` [MMS, methyl methane sulphonate], the fold induction [9] is reported as 20 to 150, the “SCC result in words” value [1] is reported as “inducible” and the “SCC/10^4 cells” value ([1]; 0.001 %) is reported as 3.9 /10^4 cells. The “SCC/10^4 cells” value ([1]; 0.005 %) was 11.4 /10^4 cells, the “SCC/10^4 cells” value ([1]; 0.01 %) was 46.6 /10^4 cells and the “SCC/10^4 cells” value ([1]; 0.02 %) was 129 /10^4 cells. The “ICC result in words” value [2] was “inducible”, the “ICC/10^5 cells” value ([2]; 0.001 %) was 1.9 /10^5 cells and the “ICC/10^5 cells” value ([2]; 0.005 %) was 14.4 /10^5 cells. The “ICC/10^5 cells” value ([2]; 0.01 %) was 42.3 /10^5 cells, the “ICC/10^5 cells” value ([2]; 0.02 %) was 62 /10^5 cells and the viability at 17 h ([10]; yeast strain rs112, 0.001 %) was 100%. For the same compound, the viability at 17 h ([10]; yeast strain rs112, 0.005 %) was 97%, the viability at 17 h ([10]; yeast strain rs112, 0.01 %) was 87% and the viability at 17 h ([10]; yeast strain rs112, 0.02 %) was 35%.

With `O=[N+]([O-])c1cc[n+]([O-])c2ccccc12` [NQO, 4-nitroquinoline-N-oxide] the fold induction [9] was 20 to 150, the “SCC result in words” value [1] was “inducible” and the “SCC/10^4 cells” value ([1]; 0.1 μg/ml) was 16.9 /10^4 cells. The “SCC/10^4 cells” value ([1]; 0.5 μg/ml) was 19.0 /10^4 cells, the “SCC/10^4 cells” value ([1]; 2 μg/ml) was 55.6 /10^4 cells and the “ICC result in words” value [2] was “inducible”. For the same compound, the “ICC/10^5 cells” value ([2]; 0.1 μg/ml) was 57.4 /10^5 cells, the “ICC/10^5 cells” value ([2]; 0.5 μg/ml) was 93 /10^5 cells and the “ICC/10^5 cells” value ([2]; 2 μg/ml) was 106 /10^5 cells. For the same compound, the viability at 17 h ([10]; yeast strain rs112, 0.1 μg/ml) was 84%, the viability at 17 h ([10]; yeast strain rs112, 0.5 μg/ml) was 74% and the viability at 17 h ([10]; yeast strain rs112, 2 μg/ml) was 13.3%.

With `CCOC(N)=O` [Urethane] the “SCC/10^4 cells” value ([1]; 10 mg/ml) was 1.9 /10^4 cells, the “SCC/10^4 cells” value ([1]; 20 mg/ml) was 4.8 /10^4 cells and the “SCC/10^4 cells” value ([1]; 40 mg/ml) was 5.3 /10^4 cells. The “ICC/10^5 cells” value ([2]; 10 mg/ml) was 0.66 /10^5 cells, the “ICC/10^5 cells” value ([2]; 20 mg/ml) was 0.40 /10^5 cells and the “ICC/10^5 cells” value ([2]; 40 mg/ml) was 0.78 /10^5 cells. The viability at 17 h ([10]; yeast strain rs112, 10 mg/ml) was 107%, the viability at 17 h ([10]; yeast strain rs112, 20 mg/ml) was 51% and the viability at 17 h ([10]; yeast strain rs112, 40 mg/ml) was 10%. For the same compound, the “Ames Assay result” value [4] was “negative”, the SCE assay result [5] was “negative” and the “chromosomal aberration assay result” value [6] was “negative”. For the same compound, the carcinogenicity [7] was “very effective in producing lung as well as skin tumors in mice” and the carcinogenicity [8] was “known carcinogens”.

For `C=CCc1ccc(O)c(OC)c1` [eugenol], the “SCC result in words” value [1] was “test positive”.
